Measured values taken from US12421254B2, “KRAS modulators and uses thereof” (Quanta Therapeutics, Inc., priority 2023, dated 2025).

What was measured:
[1] = tested on: phospho-ERK in GP2D (KRAS-G12D) cells; assay: pERK In Cell Western (ICW) assay (Method B), GP2D; assay type: cell-based; settings: GP2d, 3 h, Table 4
Outline: (§1)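 Read-out is In-Cell Western phospho-ERK signal divided by DRAQ5 per well, as percent of blank control, fitted with a 4-parameter variable-slope model for IC50. Compounds were dosed as 9-point half-log series for 3 h at 37°C on AGS, GP2D (G12D) or SW620 (G12V) cells plated the day before.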

[2] = tested on: phospho-ERK in SW620 (KRAS-G12V) cells; assay: pERK In Cell Western (ICW) assay (Method B), SW620; assay type: cell-based; settings: Homo sapiens, SW-620, 3 h, Table 4
Outline: as §1

[3] = biological target: GST-tagged KRAS-G12D (2-169) (Homo sapiens, UniProt P01116, G12D); assay: Nucleotide exchange assay (NEA), SOS-mediated, HTRF, KRAS G12D; assay type: biochemical; settings: Table 4; IC50 extracted at 30 min; 20 nM SOScat; read-out: NEA G12D IC50
Outline: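 SOS1cat-driven loading of fluorescent GTP-DY-647P1 (150 nM) onto GST-KRAS-G12D (2-169, 0.25 nM) read by time-resolved FRET; SOScat 20 nM, compound preincubated with KRAS 1 h at RT. Signal blanked to no-SOS reactions, normalized to DMSO; IC50 fitted from the 30-min read.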

[4] = biological target: GST-tagged KRAS-G12V (2-169) (Homo sapiens, UniProt P01116, G12V); assay: Nucleotide exchange assay (NEA), SOS-mediated, HTRF, KRAS G12V; assay type: biochemical; settings: Table 4; IC50 extracted at 90 min; 80 nM SOS
Outline: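 Exchange onto fluorescent GTP-DY-647P1 (150 nM final) catalysed by 80 nM SOS1cat was followed by Tb-anti-GST HTRF at RT for up to 90 min, after 1 h compound pre-incubation with 0.25 nM GST-tagged KRAS-G12V (2-169), pH 7.3. DMSO = 0%, no-SOS blank = 100%; 4-parameter IC50 taken at 90 min.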

GST-tagged KRAS-G12D (2-169), sequence (P01116 2-169 isoform P01116-2 G12D): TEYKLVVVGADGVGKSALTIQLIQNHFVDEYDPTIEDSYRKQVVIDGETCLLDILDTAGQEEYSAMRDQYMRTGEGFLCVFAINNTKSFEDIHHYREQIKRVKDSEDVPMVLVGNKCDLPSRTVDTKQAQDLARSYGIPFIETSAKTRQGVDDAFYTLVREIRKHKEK
GST-tagged KRAS-G12V (2-169), sequence (P01116 2-169 isoform P01116-2 G12V): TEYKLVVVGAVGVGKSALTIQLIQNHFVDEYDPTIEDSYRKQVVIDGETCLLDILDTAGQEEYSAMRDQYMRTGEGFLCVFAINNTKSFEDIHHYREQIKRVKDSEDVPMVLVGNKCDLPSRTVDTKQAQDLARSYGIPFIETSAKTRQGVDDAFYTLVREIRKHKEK

Row | SMILES | IC50 [1] [nM] | IC50 [2] [nM] | IC50 [3] [nM] | IC50 [4] [nM]
1 | CC(c1cccnc1N)N(CCC#N)c1nc(OC[C@@]23CCCN2C[C@H](F)C3)nc(N2CC3(CCc4sc(N)c(C#N)c43)C2)n1 (stereo partly drawn) [Compound 118, 2-amino-1′-[4-[1-(2-amino-3-pyridyl)ethyl-(2-cyanoethyl)amino]-6-[[(2R,8S)-2-fluoro-1,2,3,5,6,7-hexahydropyrrolizin-8-yl]methoxy]-1,3,5-triazin-2-yl]spiro[5,6-dihydrocyclopenta[b]thiophene-4,3′-azetidine]-3-carbonitrile] | < 10 | < 10 | < 10 | < 10
2 | C[C@@]1(O)C[C@@H](F)CN(c2nc(OC[C@@]34CCCN3C[C@H](F)C4)nc(N3CC4(C3)SCc3sc(N)c(C#N)c34)n2)C1 [Compound 123, 2-amino-1′-[4-[[(2R,8S)-2-fluoro-1,2,3,5,6,7-hexahydropyrrolizin-8-yl]methoxy]-6-[(3R,5R)-5-fluoro-3-hydroxy-3-methyl-1-piperidyl]-1,3,5-triazin-2-yl]spiro[6H-thieno[3,4-b]thiophene-4,3′-azetidine]-3-carbonitrile] | 10 to 100 | 100 to 1000 | < 10 | < 10
3 | CC(c1nccnc1N)N(CCO)c1nc(OC[C@@]23CCCN2C[C@H](F)C3)nc(N2CC3(CCc4sc(N)c(C#N)c43)C2)n1 (stereo partly drawn) [Compound 124, 2-amino-1′-[4-[1-(3-aminopyrazin-2-yl)ethyl-(2-hydroxyethyl)amino]-6-[[(2R,8S)-2-fluoro-1,2,3,5,6,7-hexahydropyrrolizin-8-yl]methoxy]-1,3,5-triazin-2-yl]spiro[5,6-dihydrocyclopenta[b]thiophene-4,3′-azetidine]-3-carbonitrile] | 100 to 1000 | 10 to 100 | < 10 | < 10
4 | CC(c1cccnc1N)N(C)c1nc(OCC2(CN3CCOCC3)CC2)nc(N2CC3(C2)SCc2sc(N)c(C#N)c23)n1 (stereo not drawn) [Compound 128, 2-amino-1′-[4-[1-(2-amino-3-pyridyl)ethyl-methyl-amino]-6-[[1-(morpholinomethyl)cyclopropyl]methoxy]-1,3,5-triazin-2-yl]spiro[6H-thieno[3,4-b]thiophene-4,3′-azetidine]-3-carbonitrile] | 100 to 1000 | 10 to 100 | 10 to 100 | < 10
5 | CC(c1ccn[nH]1)N(C)c1nc(OC[C@@]23CCCN2C[C@H](F)C3)nc(N2CC3(CCc4sc(N)c(C#N)c43)C2)n1 (stereo partly drawn) [Compound 129, 2-amino-1′-[4-[methyl-[1-(1H-pyrazol-5-yl)ethyl]amino]-6-[[(2R,8S)-2-fluoro-1,2,3,5,6,7-hexahydropyrrolizin-8-yl]methoxy]-1,3,5-triazin-2-yl]spiro[5,6-dihydrocyclopenta[b]thiophene-4,3′-azetidine]-3-carbonitrile] | 1000 to 20000 | 1000 to 20000 | 100 to 1000 | < 10
6 | N#Cc1c(N)sc2c1C1(CC2)CN(c2nc(OC[C@@]34CCCN3C[C@H](F)C4)nc(N3CCCC4(CC(=O)N4)C3)n2)C1 (stereo partly drawn) [Compound 130, 2-amino-1′-[4-[[(2R,8S)-2-fluoro-1,2,3,5,6,7-hexahydropyrrolizin-8-yl]methoxy]-6-(2-oxo-1,8-diazaspiro[3.5]nonan-8-yl)-1,3,5-triazin-2-yl]spiro[5,6-dihydrocyclopenta[b]thiophene-4,3′-azetidine]-3-carbonitrile] | 100 to 1000 | 1000 to 20000 | < 10 | < 10
7 | CC(c1cc(Cl)nnc1N)N(C)c1nc(OC[C@@]23CCCN2C[C@H](F)C3)nc(N2CC3(CCc4sc(N)c(C#N)c43)C2)n1 (stereo partly drawn) [Compound 132, 2′-amino-1-(4-((1-(3-amino-6-chloropyridazin-4-yl)ethyl)(methyl)amino)-6-(((2R,7aS)-2-fluorotetrahydro-1H-pyrrolizin-7a(5H)-yl)methoxy)-1,3,5-triazin-2-yl)-5′,6′-dihydrospiro[azetidine-3,4′-cyclopenta[b]thiophene]-3′-carbonitrile] | 1000 to 20000 | 100 to 1000 | 10 to 100 | < 10
8 | N#Cc1c(N)sc2c1C1(CC2)CN(c2nc(OC[C@@]34CCCN3C[C@H](F)C4)nc(N(CCO)Cc3cc(F)cnc3N)n2)C1 [Compound 133, 2-amino-1′-[4-[(2-amino-5-fluoro-3-pyridyl)methyl-(2-hydroxyethyl)amino]-6-[[(2R,8S)-2-fluoro-1,2,3,5,6,7-hexahydropyrrolizin-8-yl]methoxy]-1,3,5-triazin-2-yl]spiro[5,6-dihydrocyclopenta[b]thiophene-4,3′-azetidine]-3-carbonitrile] | 100 to 1000 | 10 to 100 | < 10 | < 10
9 | CC(c1nccnc1N)N(C)c1nc(OC[C@@]23CCCN2C[C@H](F)C3)nc(N2CC3(C2)SCc2sc(N)c(C#N)c23)n1 (stereo partly drawn) [Compound 134, 2-amino-1′-[4-[1-(3-aminopyrazin-2-yl)ethyl-methyl-amino]-6-[[(2R,8S)-2-fluoro-1,2,3,5,6,7-hexahydropyrrolizin-8-yl]methoxy]-1,3,5-triazin-2-yl]spiro[6H-thieno[3,4-b]thiophene-4,3′-azetidine]-3-carbonitrile] | 10 to 100 | < 10 | < 10 | < 10
10 | N#Cc1c(N)sc2c1C1(CC2)CN(c2nc(OC[C@@]34CCCN3C[C@H](F)C4)nc(N(CCO)Cc3ccc[nH]c3=O)n2)C1 [Compound 136, 2-amino-1′-[4-[[(2R,8S)-2-fluoro-1,2,3,5,6,7-hexahydropyrrolizin-8-yl]methoxy]-6-[2-hydroxyethyl-[(2-oxo-1H-pyridin-3-yl)methyl]amino]-1,3,5-triazin-2-yl]spiro[5,6-dihydrocyclopenta[b]thiophene-4,3′-azetidine]-3-carbonitrile] | 1000 to 20000 | 1000 to 20000 | 100 to 1000 | 100 to 1000
11 | N#Cc1c(N)sc2c1C1(CC2)CN(c2nc(OC[C@@]34CCCN3C[C@H](F)C4)nc(N(CCO)Cc3cn[nH]c3)n2)C1 [Compound 137, 2-amino-1′-[4-[[(2R,8S)-2-fluoro-1,2,3,5,6,7-hexahydropyrrolizin-8-yl]methoxy]-6-[2-hydroxyethyl(1H-pyrazol-4-ylmethyl)amino]-1,3,5-triazin-2-yl]spiro[5,6-dihydrocyclopenta[b]thiophene-4,3′-azetidine]-3-carbonitrile] | 1000 to 20000 | 1000 to 20000 | 100 to 1000 | 10 to 100
12 | CC(c1cccnc1O)N(C)c1nc(OC[C@@]23CCCN2C[C@H](F)C3)nc(N2CC3(CCc4sc(N)c(C#N)c43)C2)n1 (stereo partly drawn) [Compound 138, 2-amino-1′-[4-[[(2R,8S)-2-fluoro-1,2,3,5,6,7-hexahydropyrrolizin-8-yl]methoxy]-6-[1-(2-hydroxy-3-pyridyl)ethyl-methyl-amino]-1,3,5-triazin-2-yl]spiro[5,6-dihydrocyclopenta[b]thiophene-4,3′-azetidine]-3-carbonitrile] | 1000 to 20000 | 1000 to 20000 | 100 to 1000 | 1000 to 20000
13 | CCN(c1nc(OC[C@@]23CCCN2C[C@H](F)C3)nc(N2CC3(C2)SCc2sc(N)c(C#N)c23)n1)[C@H](C)c1cccnc1N [Compound 139A, 2-amino-1′-[4-[[(1*)-1-(2-amino-3-pyridyl)ethyl]-ethyl-amino]-6-[[(2R,8S)-2-fluoro-1,2,3,5,6,7-hexahydropyrrolizin-8-yl]methoxy]-1,3,5-triazin-2-yl]spiro[6H-thieno[3,4-b]thiophene-4,3′-azetidine]-3-carbonitrile] | < 10 | < 10 | < 10 | < 10
14 | CCN(c1nc(OC[C@@]23CCCN2C[C@H](F)C3)nc(N2CC3(C2)SCc2sc(N)c(C#N)c23)n1)[C@@H](C)c1cccnc1N [Compound 139B, 2-amino-1′-[4-[[(1*)-1-(2-amino-3-pyridyl)ethyl]-ethyl-amino]-6-[[(2R,8S)-2-fluoro-1,2,3,5,6,7-hexahydropyrrolizin-8-yl]methoxy]-1,3,5-triazin-2-yl]spiro[6H-thieno[3,4-b]thiophene-4,3′-azetidine]-3-carbonitrile] | 10 to 100 | 10 to 100 | < 10 | < 10
15 | CC(O)CN(Cc1cccnc1N)c1nc(OC[C@@]23CCCN2C[C@H](F)C3)nc(N2CC3(CCc4sc(N)c(C#N)c43)C2)n1 (stereo partly drawn) [Compound 141, 2-amino-1′-[4-[(2-amino-3-pyridyl)methyl-(2-hydroxypropyl)amino]-6-[[(2R,8S)-2-fluoro-1,2,3,5,6,7-hexahydropyrrolizin-8-yl]methoxy]-1,3,5-triazin-2-yl]spiro[5,6-dihydrocyclopenta[b]thiophene-4,3′-azetidine]-3-carbonitrile] | 1000 to 20000 | 100 to 1000 | 10 to 100 | < 10
